Experimental data taken from US20240083839A1, “COMPOSITIONS AND METHODS FOR TREATING NEURODEGENERATIVE DISEASES AND DISORDERS” (The Regents of the University of California, priority 2020, published 2024).
Where “and” joins values, the source holds several entries; their conditions need not be identical. Equal entries are not always repeated. Structures can show the parent of a compound that is named as a salt. Where two headings read alike, the source gives them in different places.

Experiments:
[1] = test system: SirT1 levels in N2a-E4 cells; test: SirT1 levels by AlphaLISA in ApoE4-transfected N2a cells; assay type: cell-based, murine
Method: Prompted by the emerging importance of the associations between ApoE4 and the expression/protein levels of SirT1, high-throughput screening (HTS) of the UCLA compound library was performed using AlphaLISA to detect SirT1 levels in murine neuroblastoma cells stably transfected with ApoE4 (E4-N2a) to identify SirT1 enhancers. […] In the in vivo study, mice were treated orally at 40 mkd (20 mg/kg BID) for 56 days and underwent assessment of cognition in the Novel Object Recognition (NOR) testing paradigm. […] The performance of A03-treated E4-AD mice (FIG. 5A) improved to level of non-transgenic vehicle-treated mice.

PRMT4 = molecular target: T1, PRMT4 (Homo sapiens, UniProt Q86X55); test: Cell-free PRMT enzyme activity assay, PRMT4; assay type: biochemical; details: A03 at 5 μM
T1 sequence (Q86X55 1-608): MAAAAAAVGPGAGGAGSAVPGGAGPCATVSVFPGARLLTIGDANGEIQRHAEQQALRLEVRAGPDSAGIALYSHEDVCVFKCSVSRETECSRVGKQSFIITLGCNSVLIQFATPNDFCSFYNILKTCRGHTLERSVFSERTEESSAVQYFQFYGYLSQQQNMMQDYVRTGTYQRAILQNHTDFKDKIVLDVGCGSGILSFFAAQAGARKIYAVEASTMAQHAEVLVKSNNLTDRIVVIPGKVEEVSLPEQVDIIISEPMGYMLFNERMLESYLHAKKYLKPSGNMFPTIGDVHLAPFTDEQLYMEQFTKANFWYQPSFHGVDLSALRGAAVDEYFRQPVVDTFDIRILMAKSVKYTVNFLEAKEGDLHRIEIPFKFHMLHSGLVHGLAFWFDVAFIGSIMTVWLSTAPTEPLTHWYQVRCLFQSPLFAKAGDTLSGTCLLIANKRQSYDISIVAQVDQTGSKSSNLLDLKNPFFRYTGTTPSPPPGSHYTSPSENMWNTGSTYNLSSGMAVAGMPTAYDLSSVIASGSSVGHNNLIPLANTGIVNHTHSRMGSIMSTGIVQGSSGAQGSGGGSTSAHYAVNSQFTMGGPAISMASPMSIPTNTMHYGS
From the text: (§1) Due both the sequence homology and functional similarity of PRMT family members, in follow-up experiments PRMT 1, 4, and 8 inhibitors as well as assays for inhibition by those PRMTs were used. […] This profile may be due to its binding to an allosteric site on the PRMT8 enzyme and needs further kinetic analysis. […] The mode & inhibition kinetics to be investigated in the renewal grant.

PRMT8 = PRMT8 (Homo sapiens, UniProt Q9NR22); test: Cell-free PRMT enzyme activity assay, PRMT8; assay type: biochemical; details: cell-free assay; A03 at 5 μM
Sequence of PRMT8 (Q9NR22 whole entry, species assumed): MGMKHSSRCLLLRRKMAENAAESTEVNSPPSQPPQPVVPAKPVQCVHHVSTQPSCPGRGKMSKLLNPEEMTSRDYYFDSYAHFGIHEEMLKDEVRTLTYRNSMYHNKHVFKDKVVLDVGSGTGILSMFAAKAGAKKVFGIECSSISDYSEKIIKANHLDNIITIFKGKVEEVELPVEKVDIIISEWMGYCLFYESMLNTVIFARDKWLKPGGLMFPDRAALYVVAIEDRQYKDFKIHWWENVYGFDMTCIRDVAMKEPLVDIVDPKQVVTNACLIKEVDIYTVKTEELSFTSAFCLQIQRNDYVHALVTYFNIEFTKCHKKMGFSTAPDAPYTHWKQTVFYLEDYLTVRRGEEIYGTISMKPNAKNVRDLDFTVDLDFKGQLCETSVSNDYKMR
From the text: as §1
Testing of additional A03 analogs are ongoing. For affinity purification, DDL215 that was used through clicking to beads. […] An initial correlation between cell-free PRMT8 inhibition and neuronal SirT1 enhancement (in cells) at 5 μM was seen (FIG. 10B).

Compound	PAMPA (PAMPA; PAMPA)	SirT1 SOμM [1]	SirT1 SμM [1]	PAMPA (PAMPA)	PRMT4 inhibition (PRMT4)	PRMT8 inhibition (PRMT8)
CC(C)(Cc1ccc(F)c(F)c1)NC(=O)[C@@H](N)c1ccccc1 [MP-37]	1.81	a (a <250%)	A (A >20%)	–	–	–
C[C@H](N)C(=O)NC(C)(C)Cc1cccc(C(F)(F)F)c1 [MP-39, (S)-2-amino-N-(2-methyl-1-(3-(trifluoromethyl)phenyl)propan-2-yl)propanamide]	–	A, A (A >20%)	A, A (A >20%)	1.7	–	–
C[C@@H](N)C(=O)NC(C)(C)Cc1cccc(C(F)(F)F)c1 [MP-40, (R)-2-amino-N-(2-methyl-1-(3-(trifluoromethyl)phenyl)propan-2-yl)propanamide]	–	A, A (A >20%)	A, A (A >20%)	1.78	–	–
C[C@H](N)C(=O)OC(C)(C)Cc1ccc(Cl)cc1 [MP-41, 1-(4-chlorophenyl)-2-methylpropan-2-yl L-alaninate]	3.88	A, A (A >20%)	A, A (A >20%)	–	–	–
C[C@@H](N)C(=O)OC(C)(C)Cc1ccc(Cl)cc1 [MP-42, 1-(4-chlorophenyl)-2-methylpropan-2-yl D-alaninate]	3.9	a, a (a <250%)	a, a (a <250%)	–	–	–
C[C@H](N)C(=O)NC(C)(C)Cc1cc(F)cc(F)c1 [MP-43, (S)-2-amino-N-(1-(3,5-difluorophenyl)-2-methylpropan-2-yl)propanamide]	–	A, A (A >20%)	A, A (A >20%)	1.59	–	–
C[C@@H](N)C(=O)NC(C)(C)Cc1cc(F)cc(F)c1 [MP-44, (R)-2-amino-N-(1-(3,5-difluorophenyl)-2-methylpropan-2-yl)propanamide]	–	A (A >20%)	a (a <250%)	1.57	–	–
C[C@H](N)C(=O)NC(C)(C)Cc1ccc(Br)cc1 [MP-47, (S)-2-amino-N-(1-(4-bromophenyl)-2-methylpropan-2-yl)propanamide]	–	A (A >20%)	B (B >50%)	1.76	–	–
C[C@H](N)C(=O)OC(C)(C)Cc1ccncc1 [MP-48, 2-methyl-1-(pyridin-4-yl)propan-2-yl alaninate]	–	B (B >50%)	A (A >20%)	0.4	–	–
C#Cc1ccc(CC(C)(C)OC(=O)[C@H](C)N)cc1 [MP-50, 1-(4-ethynylphenyl)-2-methylpropan-2-yl alaninate]	–	B (B >50%)	A (A >20%)	3.36	–	–
C[C@H](N)C(=O)NC(C)(Cc1ccc(F)cc1)Cc1ccc(F)cc1 [MP-51, (S)-2-amino-N-(1,3-bis(4-fluorophenyl)-2-methylpropan-2-yl)propanamide]	–	C (C = 100% increase versus control)	A (A >20%)	2.25 and 2.38	–	–
C[C@@H](N)C(=O)NC(C)(Cc1ccc(F)cc1)Cc1ccc(F)cc1 [MP-52, (R)-2-amino-N-(1,3-bis(4-fluorophenyl)-2-methylpropan-2-yl)propanamide]	–	A, A (A >20%)	A, A (A >20%)	1	–	–
CC(=O)c1ccc(CC(C)(C)NC(=O)[C@H](C)N)cc1 [MP-53, (S)—N-(1-(4-acetylphenyl)-2-methylpropan-2-yl)-2-aminopropanamide]	–	B (B >50%)	A (A >20%)	0.49	–	–
C[C@H](N)C(=O)Nc1ccc2ccccc2c1 [MP-55, (S)-2-amino-N-(naphthalen-2-yl)propanamide]	–	B (B >50%)	A (A >20%)	5.06	–	–
C[C@H](N)C(=O)NC1Cc2ccccc2C1 [MP-56, (S)-2-amino-N-(2,3-dihydro-1H-inden-2-yl)propanamide]	–	C (C = 100% increase versus control)	A (A >20%)	1.81	–	–
C[C@H](N)C(=O)Nc1ccccc1-c1ccc(F)cc1 [MP-57, (S)-2-amino-N-(4′-fluoro-[1,1′-biphenyl]-2-yl)propanamide]	–	B (B >50%)	A (A >20%)	1.6(2)	–	–
C[C@H](N)C(=O)NC(C)(C)Cc1ccc(CC(F)(F)F)cc1 [MP-58, (S)-2-amino-N-(2-methyl-1-(4-(2,2,2-trifluoroethyl)phenyl)propan-2-yl)propanamide]	–	C (C = 100% increase versus control)	A (A >20%)	1.28	–	–
C#Cc1ccc(CC(C)(C)NC(=O)[C@H](C)N)cc1 [MP-59, (S)-2-amino-N-(1-(4-ethynylphenyl)-2-methylpropan-2-yl)propanamide]	–	A, A (A >20%)	A, A (A >20%)	2.49	–	–
CC(C)(Cc1ccc(Br)cc1)NC(=O)[C@@H](N)CCC(=O)O [MP-61, (S)-4-amino-5-((1-(4-bromophenyl)-2-methylpropan-2-yl)amino)-5-oxopentanoic acid]	–	B (B >50%)	A (A >20%)	0.29	–	–
C#CC[C@H](N)C(=O)NC(C)(C)Cc1ccc(Br)cc1 [MP-62, (S)-2-amino-N-(1-(4-bromophenyl)-2-methylpropan-2-yl)pent-4-ynamide]	–	B (B >50%)	A (A >20%)	1.67	–	–
COC(=O)N[C@H]1Cc2ccccc2CNC1=O [MP-70]	–	A, A (A >20%)	A, A (A >20%)	0.59	–	–
O=C1NCN[C@H]1Cc1ccc(Cl)cc1 [MP-72, (S)-5-(4-chlorobenzyl)imidazolidin-4-one]	–	A, A (A >20%)	A, A (A >20%)	11.07(2)	–	–
O=C(N[C@H]1Cc2ccccc2CNC1=O)OCc1ccccc1 [MP-73, (S)-benzyl (3-oxo-2,3,4,5-tetrahydro-1H-benzo[c]azepin-4-yl)carbamate]	–	a, a (a <250%)	a, a (a <250%)	0.68	–	–
O=C(N[C@H]1Cc2ccccc2CNC1=O)OCC1c2ccccc2-c2ccccc21 [MP-74, (S)-(9H-fluoren-9-yl)methyl (3-oxo-2,3,4,5-tetrahydro-1H-benzo[c]azepin-4-yl)carbamate]	–	a, a (a <250%)	a, a (a <250%)	1.55	–	–
CC(N)C(=O)OC(C)(C)Cc1ccc(C(F)(F)F)cc1.Cl (centres unmarked) [MP-76, 2-methyl-1-(4-(trifluoromethyl)phenyl)propan-2-yl 2-aminopropanoate hydrochloride]	–	A, A (A >20%)	A, A (A >20%)	2.71	–	–
C[C@H](NC(=O)OC(C)(C)C)C(=O)NC(C)(C)Cc1ccc(C(F)(F)F)cc1 [MP-77, (S)-tert-butyl (1-((2-methyl-1-(4-(trifluoromethyl)phenyl)propan-2-yl)amino)-1-oxopropan-2-yl)carbamate]	–	a, a (a <250%)	a, a (a <250%)	1.61	–	–
C[C@H](N)C(=O)NC(C)(C)Cc1ccc(C(F)(F)F)cc1 [MP-78, (S)-2-amino-N-(2-methyl-1-(4-(trifluoromethyl)phenyl)propan-2-yl)propanamide hydrochloride]	–	B (B >50%)	A (A >20%)	1.93	–	–
CC(C)(N)C(=O)NCCc1ccc(Cl)cc1 [MP-79, 2-amino-N-(4-chlorophenethyl)-2-methylpropanamide]	–	B (B >50%)	A (A >20%)	1.74	–	–
CC(C)Oc1ccc(-c2c[nH]cc2CN(C)CCN)cc1 [MS23]	–	–	–	–	inhibits all 3 enzymes	inhibits all 3 enzymes
